These results are taken from patent US20210170026A1, “ANTICANCER AGENT, RADIOSENSITIZER, AND FOOD COMPOSITION” (KRACIE PHARMA, LTD., priority 2016, published 2021).

Data set [1] relates to human pancreatic cancer cells, MiaPaCa-2 cells. In words: Test Example 1: antitumor effects of arctigenin treatment and radiation therapy in mice transplanted with MiaPaCa-2 cells. Type of data set: in vivo, BALB/cAJc1-nu/nu mice. The protocol: The antitumor effects of arctigenin treatment and radiation therapy were evaluated. To BALB/cAJc1-nu/nu mice (CLEA Japan, Inc.), 1×10^6 human pancreatic cancer cells, MiaPaCa-2 cells were subcutaneously transplanted. On day 14 after the transplantation, the mice to which the cells were transplanted were divided into four groups of (a) untreated group, (b) arctigenin treatment group, (c) radiation therapy group and (d) arctigenin treatment-radiation therapy-combination group. The arctigenin treatment group and the combination group were treated with arctigenin for two weeks. The arctigenin treatment was conducted by giving feed containing 0.5% (w/w) of the burdock fruit extract of Example 1 to the mice. When the dose of arctigenin was calculated assuming that the daily intake of the feed of the mice was 3 to 5 g, the dose was 1.5 to 2.5 mg/individual/day. After two weeks of the arctigenin treatment, radiation was applied to the tumors of the radiation therapy group and the combination group using an x-ray irradiator (Faxitron X-ray (model: CP160)) under the setting conditions of 160 kV and 6.3 mA at a dose of 20 Gy/fraction through a copper plate filter. Then, the arctigenin administration group and the combination group were treated with arctigenin for two weeks. After the arctigenin treatment, the tumor sizes and the tumor weights of the groups were measured. In addition, the tumors were collected and pathologically analyzed.

The test system is the same in data set [2]. In words: Test Example 2: order of arctigenin treatment and radiation therapy in mice transplanted with MiaPaCa-2 cells. It counts as in vivo, BALB/cAJc1-nu/nu mice. The protocol:
In order to evaluate whether the order of the burdock fruit extract treatment and the radiation therapy would affect the antitumor effects, arctigenin treatment was conducted for two weeks either before or after conducting radiation therapy. To BALB/cAJc1-nu/nu mice (CLEA Japan, Inc.), 1×10^6 human pancreatic cancer cells, MiaPaCa-2 cells were subcutaneously transplanted. On day 14 after the transplantation, the mice to which the cells were transplanted were divided into (a) untreated group, (b) arctigenin treatment group, (c) radiation therapy group and (d) arctigenin treatment-radiation therapy-combination group. The (b) arctigenin treatment group was further divided into a group in which two-week arctigenin treatment was started 14 days after the transplantation and a group in which two-week arctigenin treatment was started four weeks after the transplantation. […] When the dose of arctigenin was calculated assuming that the daily intake of the feed of the mice was 3 to 5 g, the dose was 1.5 to 2.5 mg/individual/day. […] After the two-week arctigenin treatment after the radiation therapy, the tumor sizes and the tumor weights of the groups were measured. In addition, the tumors were collected and pathologically analyzed.

For data set [3] the following is noted: cited from earlier work.
[4] abbreviates: combination of arctigenin treatment and radiation therapy (20 Gy/fraction), two weeks after the radiation therapy, vs untreated group.

For `COc1cc(C[C@H]2C(=O)OC[C@@H]2Cc2ccc(OC)c(OC)c2)ccc1O` [arctigenin], the “intratumoral hypoxic region (photon counts/tumor volume) using IVIS” value in data set [1] (after the arctigenin treatment (before radiation therapy), vs untreated group, FIG. 3, FIG. 4) is given as “significantly smaller”. The average tumor size entry in data set [1] (after two weeks of first arctigenin treatment (before radiation therapy), vs untreated group, feed containing 0.5% (w/w) burdock fruit extract of Example 1, arctigenin 1.5 to 2.5 mg/individual/day, FIG. 2) is “significantly smaller”; in data set [2] (two-week arctigenin treatment before radiation therapy (AG-Con, RT(+)) vs arctigenin treatment after radiation therapy (Con-AG, RT(+)), FIG. 11), “shrank significantly”. Besides, in data set [1] (arctigenin treatment alone, after end of treatment (two weeks after the radiation therapy), vs untreated group), the tumor size result is reported as “a tendency towards a smaller tumor size”. Moreover, the tumor sizes entry in data set [1] (setting [4]) is on record as “significantly smaller”. In addition, the tumor weights result in data set [1] (setting [4]) is “significantly smaller”. The “tumors (size)” value in data set [1] (combination of arctigenin treatment and radiation therapy, vs radiation therapy alone) was “significantly small”. Also, the “hypoxic state in the tumor” value in data set [2] (arctigenin treatment before the radiation therapy, IVIS, FIG. 12) was “improved”. The solubility in water entry in data set [3] was “insoluble”.
